Experimental data published in US4281121A, “1,3,4-Thiadiazole-2-carboxylic acid derivatives, process for making the same and fungicidal and nematocidal compositions containing same” (Schering Aktiengesellschaft, priority 1978, dated 1981).
Where two headings read alike, the source gives them in different places.

Key:
[1] = system: Helminthosporium gram; settings: about 5 weeks
Description: Treatment of barley seeds infested with Helminthosporium gram
After emergence, the plants were subjected to illumination for 12 hours per day. After about 5 weeks the infested plants were counted and the total number of plants for each test were also counted. The active agents tested were used as pulverulent compositions.

[2] = system: Pythium ultimum; test: Threshold concentration test for use of the compounds against Pythium ultimum (infested soil, garden peas); assay type: in vivo; parameters: key to root evaluation (1-4): 4: white roots without fungous necrosis; 3: white roots, minor fungous necrosis; 2: brown roots, already more pronounced fungous necrosis; 1: heavy fungous necrosis, roots rotted; settings: for root evaluation (1-4): 3 weeks; for number of sound peas: 20 grains per dish, 3 weeks at 20-24° C.
Description: Threshold concentration test for use of the compounds against Pythium ultimum
A 20% concentration of certain pulverulent active agents as listed below were mixed in uniform manner into a soil which had been heavily infested by Pythium ultimum. The thus treated soil was then placed into clay dishes of a capacity of 0.5 l earth. Without any intermediate time lapse 20 grain of garden peas (Pisum sativum L. convar. medullare Alef.) of the type "Wunder von Kelvedon" were then seeded into each of the clay dishes. After a cultivation period of three weeks at 20° to 24° C. in a hothouse the number of sound peas was determined and a root evaluation was carried out. The active agents amounts and results appear from the following table.
(§1) The root evaluation was carried out on a scale from 1 to 4 as follows: […]

[3] = system: Tilletia caries; test: Treatment of oat seeds infested with Tilletia caries (spore germination); assay type: in vivo
[4] = system: Plasmopara viticola; test: Prophylactic leaf treatment of grapevines in the hothouse against Plasmopara viticola; assay type: in vivo
Description: Effects of prophylactic leaf treatment of grapevines in the hothouse against Plasmopara viticola
Young grapevine plants having from 5 to 8 leaves were sprayed dripping wet with the concentrations of active agents stated in the table below. After drying of the spray deposit the leaves were sprayed with an aqueous suspension of sporangia of the fungus (about 20,000 per ml); the spraying was applied to the bottom side of the leaves. The plants were then immediately incubated in a hothouse at a temperature of 22° to 24° C. and at maximum water saturation in the atmosphere. Beginning with the second day the humidity of the air was reduced for 3 to 4 days to normal level (30 to 70% saturation) and was then maintained for another day on the level of full saturation. Subsequently, the percentage portion of the fungus infested surface of each leaf was noted and the average per treatment was calculated in order to determine the fungicidal activity. This was done on the basis of the following formula: [formula]
The active compounds were applied in the form of a 20% concentration spray powder.

[5] = system: Fusarium avenaceum; test: Threshold concentration test in case of Fusarium avenaceum (infested soil, garden peas); assay type: in vivo; settings: for number of sound peas: 20 grains per dish, 18 days at 20-24° C.; for root evaluation (1-4): 18 days
Description: Threshold concentration test in case of Fusarium avenaceum
A 20% pulverulent active agent of the type further identified in the table below was mixed in uniform manner with a soil which had been heavily infested with Fusarium avenaceum. The thus treated soil was then placed into clay dishes of a capacity of 0.5 l of earth. Each dish was seeded without any intervening time with 20 grains of garden peas (Pisum sativum L. convar. medullare Alef.) of the type "Wunder von Kelvedon". After a cultivation time of 18 days at 20° to 24° C. in a hot house the number of sound peas was determined and a root evaluation was carried out. The active agents employed, the amounts and results appear from the following table.
as §1

[6] = system: Helminthosporium gramineum; test: Seed treatment in open field tests for infestation by Helminthosporium gramineum (barley); assay type: in vivo; settings: summer barley; 50 g active agent/100 kg barley; about 3 months
Description: Seed treatment in open field tests for infestation by Helminthosporium gramineum
The active agents were used in the form of pulverulent compositions. After about 8 months in case of winter barley and after about 3 months in case of summer barley the infested plants were counted and the activity was calculated by the formula [formula]

[7] = system: Piricularia oryzae; assay type: in vivo; settings: 5 days
[8] = concentration of active agent 0.001 (unit not given)
[9] = concentration of active agent 0.005 (unit not given)
[10] = concentration of active agent 0.025 (unit not given)
[11] = concentration of active agent 0.1 (percentages)

SMILES	% activity ([1]; 50 g active agent per 100 kg)	root evaluation (1-4) ([2]; 20 mg/l soil)	number of sound peas ([2]; 20 mg/l soil)	root evaluation (1-4) ([2]; 40 mg/l soil)	number of sound peas ([2]; 40 mg/l soil)	root evaluation (1-4) ([2]; 80 mg/l soil)	number of sound peas ([2]; 80 mg/l soil)	% activity ([3]; 10 g active agent per 100 kg)	% activity ([3]; 20 g active agent per 100 kg)	% activity ([3]; 50 g active agent per 100 kg)	number of sound peas ([5]; 25 mg/l soil)	root evaluation (1-4) ([5]; 25 mg/l soil)	number of sound peas ([5]; 50 mg/l soil)	root evaluation (1-4) ([5]; 50 mg/l soil)	number of sound peas ([5]; 100 mg/l soil)	root evaluation (1-4) ([5]; 100 mg/l soil)	% activity [7, 11]	also measured
CC[S+]([O-])c1nnc(C#N)s1 (centres unmarked) [5-ethylsulfinyl-1,3,4-thiadiazole-2-carbonitrile]	100%	4	20	4	19	4	19	99.8%	100%	100%	19	4	20	4	20	4	–	% activity ([1]; 10 g active agent per 100 kg): 98%; % activity ([1]; 20 g active agent per 100 kg): 100%; % activity [4, 8]: 89%; % activity [4, 9]: 96%; % activity [4, 10]: 100%; % activity [6]: 100%
CC(C)S(=O)(=O)c1nnc(C(N)=O)s1 [5-isopropylsulfonyl-1,3,4-thiadiazole-2-carboxamide]	–	4	17	4	18	4	19	–	–	–	–	–	–	–	–	–	40%	–
COCCCNC(=O)c1nnc(S(C)(=O)=O)s1 [5-methylsulfonyl-1,3,4-thiadiazole-2-carboxylic acid-(3-methoxypropyl)-amide]	–	1	9	4	20	4	19	–	–	–	–	–	–	–	–	–	90%	–
C=CCNC(=O)c1nnc(S(C)(=O)=O)s1 [5-methylsulfonyl-1,3,4-thiadiazole-2-carboxylic acid-allylamide]	100%	4	19	4	18	4	18	–	100%	100%	–	–	–	–	–	–	94%	–
CCC[S+]([O-])c1nnc(C#N)s1 (centres unmarked) [5-propylsulfinyl-1,3,4-thiadiazole-2-carbonitrile]	99%	1	9	4	16	4	18	99%	100%	100%	19	4	20	4	19	4	–	% activity ([1]; 20 g active agent per 100 kg): 87%; % activity [4, 8]: 100%; % activity [4, 9]: 100%; % activity [4, 10]: 100%; % activity [6]: 99.3%
CCC[S+]([O-])c1nnc(C(=O)NCC)s1 (centres unmarked) [5-propylsulfinyl-1,3,4-thiadiazole-2-carboxylic acid-ethylamide]	94%	–	–	–	–	–	–	–	–	–	–	–	–	–	–	–	90%	–
CCCNC(=O)c1nnc([S+]([O-])CCC)s1 (centres unmarked) [5-propylsulfinyl-1,3,4-thiadiazole-2-carboxylic acid-propylamide]	94%	–	–	–	–	–	–	–	99.3%	100%	–	–	–	–	–	–	93%	–
CCCS(=O)(=O)c1nnc(C#N)s1 [5-propylsulfonyl-1,3,4-thiadiazole-2-carbonitrile]	–	–	–	–	–	–	–	99%	100%	100%	18	4	20	4	20	4	99.5%	–
C=CCNC(=O)c1nnc(S(=O)(=O)CCC)s1 [5-propylsulfonyl-1,3,4-thiadiazole-2-carboxylic acid-allylamide]	–	3	13	4	15	4	15	99.3%	99.7%	100%	–	–	–	–	–	–	93%	–
CCCS(=O)(=O)c1nnc(C(=O)OCC)s1 [5-propylsulfonyl-1,3,4-thiadiazole-2-carboxylic acid-ethylester]	–	–	–	–	–	–	–	–	–	–	–	–	–	–	–	–	93%	–
CCCS(=O)(=O)c1nnc(C(=O)NC(C)C)s1 [5-propylsulfonyl-1,3,4-thiadiazole-2-carboxylic acid-isopropylamide]	–	1	9	4	20	4	18	98%	99.8%	100%	14	2	16	3	17	4	90%	–
CCC(C)S(=O)(=O)c1nnc(C#N)s1 (centres unmarked) [5-sec.-butylsulfonyl-1,3,4-thiadiazole-2-carbonitrile]	–	–	–	–	–	–	–	75%	91%	98%	20	4	19	4	20	4	99.5%	–
CN(CCC(N)CC(=O)NC1C=CC(n2ccc(N)nc2=O)OC1C(=O)O)C(=N)N (centres unmarked) [Blasticidin-S, reference compound]	–	–	–	–	–	–	–	–	–	–	–	–	–	–	–	–	97%	% activity ([7]; concentration of active agent 0.02 (percentages)): 90%
